{"source": "patent US20170189496A1", "about": "“USE OF PHOSPHORYLATION PATHWAY-RELATED FACTOR IN REGULATING FUNCTION OF REGULATORY T CELL” (Institut Pasteur of Shanghai, Chinese Academy of Sciences, priority 2012, published 2017)", "molecules": {"B1": {"name": "shPIM1: PIM1 shRNA (SEQ ID NO: 3 and 4) in lentiviral vector pLKO.1 (nucleic acid)", "sense": "CCGGGATACTCTCTTCTTCTCATAGCTCGAGCTATGAGAAGAAGAGAGTATCTTTTT", "antisense": "AATTAAAAAGATACTCTCTTCTTCTCATAGCTCGAGCTATGAGAAGAAGAGAGTATC"}, "B2": {"name": "IL-4: inflammatory cytokine, purchased from Apotech (protein, UniProt P05112 25-153, looked up)", "Interleukin-4": "HKCDITLQEIIKTLNSLTEQKTLCTELTVTDIFAASKNTTEKETFCRAATVLRQFYSHHEKDTRCLGATAQQFHRHKQLIRFLKRLDRNLWGLAGLNSCPVKEANQSTLENFLERLKTIMREKYSKCSS"}}, "key": {"[1]": {"test_system": "SZ4.03 lymphocyte cell line that highly expresses FOXP3", "assay": "Inflammatory cytokine induction of PIM1 expression in SZ4.03 cells (immunoblot)", "type": "cell-based", "details": "IL-6 20 ng/ml or IL-4 30 ng/ml; for PIM1 expression: 0 h, 1 h, 2 h, 4 h; for FOXP3 expression levels: 0-4 h", "procedure": "SZ4.03 cells were treated with IL-6 (20 ng/ml) or IL-4 (30 ng/ml), respectively. After 0 h, 1 h, 2 h, and 4 h, cells were collected and lysed by boiling directly in SDS-Loading Buffer. Samples were then analyzed by immunoblot.\nSZ4.03 cells (lymphocyte cell line that highly expresses FOXP3, kept in the present laboratory; also can be routinely obtained by one skilled in the art according to methods described in Reference 7) were cultured in 1640 culture medium containing 10% FBS, 100 units/ml penicillin-streptomycin, 100 units ml non-essential amino acids, and 100 units/ml sodium pyruvate, at 37° C. under 5% CO2.\nAfter protein samples were subjected to SDS-PAGE, transferred to nitrocellulose membrane, sealed in TBST with 5% skim milk for 1 h, primary antibody was added and incubated for 1 h, then HRP-conjugated secondary antibody was added and incubated for 1 h, and results shown by exposure with ECL substrates.\nSZ4.03 cells were treated with IL-6 (20 ng/ml) or IL-4 (30 ng/ml), respectively, for 0 h, 1 h, 2 h, and 4 h. Cells were collected and lysed by boiling directly in SDS sample buffer, and then samples were analyzed by immunoblot (primary antibodies are PIM1 antibody and FOXP3 antibody) (results shown in FIG. 2)."}, "[2]": {"test_system": "in vitro expanded natural regulatory T cells (nTreg)", "assay": "PIM1 protein expression in in vitro expanded nTreg under inflammatory cytokine stimulation", "type": "cell-based"}, "[3]": {"test_system": "human CD4+ CD25+ CD127low natural Treg (nTreg)", "assay": "Flow cytometry of expanded nTreg treated with PIM1 inhibitor", "type": "cell-based", "details": "100 nM", "procedure": "After removal of Beads, DMSO or PIM1 inhibitor (100 nM) was added and treated for 24 h, followed by APC-FOXP3 and PE-CD25 antibody staining for flow cytometry analysis.\nAfter human CD4+ CD25+ CD127^low natural Treg (nTreg) were sorted by BD FACS Aria II flow sorter, and expanded through Bead-CD3/CD28 and IL-2 (500 U/ml). DMSO or PIM1 inhibitor (4-[3-(4-chlorophenyl)-2,1-benzisoxazol-5-yl]-2-pyrimidinamine, 100 nM) was added and treated for 24 h. and the cells were stained with APC-FOXP3 and PE-CD25 antibody for flow cytometry analysis (results shown in FIG. 5A). The expanded nTreg were rested for 24 h. DMSO or PIM1 inhibitor (100 nM) was then added and treated for 48 h, followed by staining with APC-FOXP3 and PE-CD25 antibody for flow cytometry analysis (results shown in FIG. 5B)."}, "[4]": {"test_system": "nTreg mixed with CFSE-labeled human PBMC", "assay": "nTreg immunosuppressive activity: proliferation of CFSE-labeled PBMC", "type": "cell-based", "details": "Treg:PBMC 1:2 or 1:4; Bead-CD3/CD28; 5 days; vs DMSO-treated group", "procedure": "The expanded nTreg were mixed with human CFSE-labeled PBMC (2×10^5 cells/well) in U-shaped wells of 96-well plate at corresponding proportion. 5000 T cell dynabeads conjugated with CD3/CD28 antibody were added. Cell proliferation levels were detected after two groups of cells treated with DMSO and PIM1 inhibitors, respectively, were incubated for five days.\nRegulatory T cells were obtained from human peripheral blood mononuclear cells (purchased from Shanghai Blood Center) by antibody labeling and magnetic bead sorting. As mentioned above, after labeling effector T cells with 1 μM CFSE (Invitrogen), regulatory T cells and effector T cells were cultured for 80 h. Flow cytometry was used to detect fluorescence intensity changes in effector T cells, their proliferation status was analyzed.\nThe expanded nTreg were mixed with CFSE-labeled human PBMC (2×10^5 cells/well) at the corresponding ratio (i.e., PBMC only, Treg:PBMC=1:2 or 1:4, or Treg only) in 96-well U-shaped well. 5000 Bead-CD3/CD28 were added to each well. Two groups of cells were treated, respectively, with DMSO and PIM1 inhibitors, cultured for 5 days, followed by detection of cell proliferation levels (results shown in FIG. 6)."}, "nTreg cells": {"test_system": "nTreg cells", "assay": "nTreg expansion, FACS detection of FOXP3 and CTLA4", "type": "cell-based, human", "details": "100 nM; IL-2 500 U/ml, CD3/CD28 dynabeads 3:1; two weeks; vs control group", "procedure": "500 U/ml of IL-2 was added to 2×10^5 nTreg cells. nTreg cells were expanded using CD3/CD28 T cell dynabeads and cells at 3:1 ratio. After two weeks, part of expanded nTreg cells were collected for FACS detection. Dynabeads were removed from the remaining cells. After 48 h of rest, FOXP3 and CTLA4 cells were collected again by flow cytometry. The working concentrations of Rapamycin and PIM1 inhibitors are both 100 nM.\n500 U/ml of IL-2 was added to 2×10^5 nTreg cells. nTreg cells were expanded at a 3:1 ratio of CD3/CD28 T cell dynabeads and cells. After two weeks, part of the expanded nTreg cells were collected for FACS detection. Dynabeads were removed from the remaining cells and rested for 48 h. Cells were collected again for FACS detection of FOXP3 and CTLA4."}, "[5]": {"test_system": "Jurkat cells stably expressing HA-FOXP3", "assay": "FOXP3 protein degradation induced by PMA/LPS in Jurkat cells stably expressing HA-FOXP3 (immunoblot)", "type": "cell-based", "details": "PMA 25 ng/ml + LPS 1 ng/ml, 24 h; kaempferol 50 μM, PIM1 inhibitor 100 nM, PI3K inhibitor 10 μg/ml; DMSO control", "procedure": "HA-FOXP3-Jurkat stable expression cells were treated with PMA (25 ng/ml) and LPS (1 ng/ml). 50 μM kaempferol, 100 nM PIM1 inhibitors (specifically of 4-[3-(4-chlorophenyl)-2,1-benzisoxazol-5-yl]-2-pyrimidinamine), and 10 μg/ml PI3K inhibitor (LY294002) were added, and DMSO as a control. Cells were collected 24 h later. The levels of FOXP3 and GAPDH were detected directly by immunoblot.\nHuman embryonic kidney cell line HEK293 was co-transfected with FUGW-HA-FOXP3, del 8.9 and VSV-G. Cell culture supernatants were collected 48 h and 72 h after transfection. Viruses were purified by ultracentrifugation and used to infect Jurkat E6.1 to ultimately obtain Jurkat cell lines stably expressing HA-FOXP3.\nProtein samples were subjected to SDS-PAGE, and then transferred to nitrocellulose membrane, which was then sealed in TBST containing 5% nonfat dry milk or 3% bovine serum albumin for 1 h. Primary antibody was added and incubated for 1 h and then HRP-conjugated secondary antibody was added and incubated for 1 h, and results shown by exposure with ECL substrates.\nJurkat cells stably expressing HA-FOXP3 were treated with PMA (25 ng/ml) and LPS (1 ng/ml). Each sample was added 50 μM kaempferol, 100 nM PIM1 inhibitor (i.e., 4-[3-(4-chlorophenyl)-2,1-benzisoxazol-5-yl]-2-pyrimidinamine), and 10 μg/ml PI3K inhibitor (LY294002). DMSO serves as a control. Cells were collected after 24 h."}, "PIM1 [6]": {"biological_target": "T1, PIM1 (Homo sapiens, UniProt P11309)", "T1 sequence (P11309 whole entry)": "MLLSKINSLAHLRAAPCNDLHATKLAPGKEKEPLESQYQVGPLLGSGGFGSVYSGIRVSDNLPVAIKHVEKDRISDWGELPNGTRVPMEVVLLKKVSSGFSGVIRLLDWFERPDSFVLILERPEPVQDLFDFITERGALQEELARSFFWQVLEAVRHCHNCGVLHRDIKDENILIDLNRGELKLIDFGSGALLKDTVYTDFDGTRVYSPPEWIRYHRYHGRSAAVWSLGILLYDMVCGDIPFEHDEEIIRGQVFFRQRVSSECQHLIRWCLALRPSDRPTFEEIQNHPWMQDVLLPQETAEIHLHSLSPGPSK", "assay": "PIM shRNA lentivirus in primary nTreg, mRNA by quantitative PCR", "type": "cell-based", "design": "SZ4.03 cells that highly expresses FOXP3 were infected with viral vectors carrying the negative control shRNA (shCK) and PIM1 shRNA (shPIM1); endogenous in cells", "details": "primary nTreg cells; 1 week culture after lentivirus infection", "procedure": "Primary nTreg cells were activated with 500 U/ml of IL-2 and CD3/CD28 T cell dynabeads and cells at 3:1 ratio for 4 h, and, respectively, infected with lentivirus encoding PIM1, PIM2, and PIM3 shRNA overnight. Continued incubation for one week, the mRNA levels of FOXP3 and its target gene CTLA4 were detected by quantitative PCR.\n500 U/ml of IL-2 was added to 2×10^5 nTreg cells. Primary nTreg cells were activated at a 3:1 ratio of CD3/CD28 T cell dynabeads and cells for 4 h, followed by infection of lentiviruses encoding PIM1, PIM2, and PIM3 shRNA overnight. Cells were cultured for 1 week without removing dynabeads, and then the mRNAs level of FOXP3 and its target gene CTLA4 were detected (results shown in FIG. 12).\n(§1) shPIM1 primer sequences were designed as follows:\nAfter annealing, the synthesized shRNA primer sequences were ligated into shRNA lentiviral expression vector pLKO.1 (purchased from Addgene). After mixed at a ratio of pLKO.1:dR8.9:VSVG=5:4:3, they were transfected into HEK 293T cells by calcium phosphate method. Viruses were collected 48 h after transfection. Virus suspensions, after low-speed centrifugation and filtration, were used directly to infect target cells."}, "PIM1 [7]": {"biological_target": "T1, PIM1", "assay": "shPIM1 knockdown in SZ4.03 cells, mRNA of FOXP3 target genes by quantitative PCR", "type": "cell-based", "design": "SZ4.03 cells that highly expresses FOXP3 were infected with viral vectors carrying the negative control shRNA (shCK) and PIM1 shRNA (shPIM1); endogenous in cells; host or cells: SZ4.03 lymphocyte cell line", "details": "vs control shCK", "procedure": "After 4 h, total RNA was extracted and converted to cDNA. PIM1 mRNA expression levels were then analyzed by quantitative PCR.\nas §1\nAfter annealing, the synthesized shRNA primer sequences were ligated into lentiviral shRNA expression vector pLKO.1 (purchased from Addgene). After mixed at a ratio of pLKO.1:dR8.9:VSVG=5:4:3, HEK 293T cells were transfected with the mixture using calcium phosphate method. Viruses were collected 48 h after transfection. After low-speed centrifugation and filtration, virus suspension was used directly to infect target cells.\nSZ4.03 cells that highly expresses FOXP3 were infected with viral vectors carrying the negative control shRNA (shCK) and PIM1 shRNA (shPIM1) packaged using lentiviral packaging system, followed by puromycin (50 ng/ml) selection and DMSO or PMA/inomycin (P/I) for 4 h. Total RNA was extracted and reverse transcribed to cDNA."}, "[8]": {"details": "24 h or 48 h, vs DMSO control group"}}}
{"molecule": "IL-6: inflammatory cytokine, purchased from Apotech", "values": [{"measurement": "PIM1 expression", "setting": "[1]", "result": "gradually increases as treatment time increases"}, {"measurement": "FOXP3 expression levels", "setting": "[1]", "result": "no significant difference"}, {"measurement": "PIM1 protein expression levels", "setting": "[2]", "result": "rapidly up-regulate"}]}
{"molecule": "Nc1nccc(-c2ccc3noc(-c4ccc(Cl)cc4)c3c2)n1", "note": "[PIM1 inhibitor, 4-[3-(4-chlorophenyl)-2,1-benzisoxazol-5-yl]-2-pyrimidinamine]", "values": [{"measurement": "FOXP3 expression levels", "setting": "[3]", "result": "positively regulate"}, {"measurement": "CD25+ FOXP3+ Treg cell levels", "setting": "[3]; [8]", "result": "significantly increase"}, {"measurement": "CLTA4+ FOXP3+ Treg cell levels", "setting": "[3]; [8]", "result": "significantly increase"}, {"measurement": "PBMC proliferation", "setting": "[4]", "result": "inhibited more"}, {"measurement": "FOXP3+ and CTLA4+ nTreg cell expansion", "setting": "nTreg cells", "result": "promote"}, {"measurement": "FOXP3 protein degradation", "setting": "[5]", "result": "can inhibit"}]}
{"molecule": "B1", "values": [{"measurement": "mRNA levels of CTLA4", "setting": "PIM1 [6]", "result": "increase"}, {"measurement": "mRNA expression levels of FOXP3-negatively regulated target gene IL-2", "setting": "PIM1 [7]", "result": "reduces"}, {"measurement": "mRNA expression levels of FOXP3-positively regulated target gene CTLA4", "setting": "PIM1 [7]", "result": "enhances"}, {"measurement": "mRNA expression levels of FOXP3-positively regulated target gene GITR", "setting": "PIM1 [7]", "result": "enhances"}, {"measurement": "mRNA expression levels of non-FOXP3 target gene STUB1", "setting": "PIM1 [7]", "result": "does not affect"}, {"measurement": "mRNA expression levels of PIM1", "setting": "PIM1 [7]; DMSO or PMA/inomycin 4 h", "result": "significantly reduce"}]}
{"molecule": "B2", "values": [{"measurement": "PIM1 expression", "setting": "[1]", "result": "gradually increases as treatment time increases"}, {"measurement": "FOXP3 expression levels", "setting": "[1]", "result": "no significant difference"}, {"measurement": "PIM1 protein expression levels", "setting": "[2]", "result": "rapidly up-regulate"}]}
